The test has as its system patients with angina, with or without diabetes. As to the kind of experiment: MARISA exercise duration, diabetic (DM) vs non-DM patients. Type of test: in vivo, human. How it is done: In this Example, ranolazine (Ran) was administered to two sets of human subjects. The first set of subjects were suffering from angina alone while the second set of subjects were suffering from angina and diabetes. The […] (Monotherapy Assessment of Ranolazine in Stable Angina) study randomized patients to Ran (500 mg, 1000 mg and 1500 mg bit) and placebo in a double-blind, 4 period crossover study. All patients performed a modified Bruce exercise test at the time of trough and peak drug levels on each treatment; 42 patients with DM were compared to 133 non-DM patients.

Data on one molecule can be found in US20020052377A1, “Method for treating angina” (priority 2000, published 2002).

On to `COc1ccccc1OCC(O)CN1CCN(CC(=O)Nc2c(C)cccc2C)CC1` (racemic) [Ranolazine, (±)-N-(2,6-dimethylphenyl)-4-[2-hydroxy-3-(2-methoxyphenoxy)propyl]-1-piperazine-acetamide], for which the “Ls mean ED” value by setting is: (DM n = 42, 500 mg bid, peak) 527 s; (DM n = 42, 500 mg bid, trough) 520 s; (DM n = 42, 1000 mg bid, peak) 550 s; (DM n = 42, 1000 mg bid, trough) 526 s; (DM n = 42, 1500 mg bid, peak) 547 s; (DM n = 42, 1500 mg bid, trough) 530 s. Also, the “Ls mean ED” value (Non-DM n = 133, 500 mg bid, peak) worked out at 530 s; the “Ls mean ED” value (Non-DM n = 133, 500 mg bid, trough) is 528 s; the “Ls mean ED” value (Non-DM n = 133, 1000 mg bid, peak) turned out to be 550 s; the “Ls mean ED” value (Non-DM n = 133, 1000 mg bid, trough) was 539 s; the “Ls mean ED” value (Non-DM n = 133, 1500 mg bid, peak) stood at 557 s; the “Ls mean ED” value (Non-DM n = 133, 1500 mg bid, trough) worked out at 544 s.
